Legend:
[1] = biological target: T1, hα7-wt nAChR (Homo sapiens, UniProt P36544); experiment: Ca2+ flux imaging (FDSS), potentiation of choline response; assay type: cell-based; settings: for EC50: hα7-wt nAChR-expressing GH4C1 cells, potentiation of 100 μM choline, compounds 0.01 μM to 30 μM; for Emax: GH4-C1, maximal effect, efficacy of 100 μM choline defined as 100% in the absence of a PAM, GH4C1 cells
T1 construct: expressed in transfected cells; host or cells: GH4C1 cells (recombinant, stably over-expressing)
T1 sequence (P36544 23-502): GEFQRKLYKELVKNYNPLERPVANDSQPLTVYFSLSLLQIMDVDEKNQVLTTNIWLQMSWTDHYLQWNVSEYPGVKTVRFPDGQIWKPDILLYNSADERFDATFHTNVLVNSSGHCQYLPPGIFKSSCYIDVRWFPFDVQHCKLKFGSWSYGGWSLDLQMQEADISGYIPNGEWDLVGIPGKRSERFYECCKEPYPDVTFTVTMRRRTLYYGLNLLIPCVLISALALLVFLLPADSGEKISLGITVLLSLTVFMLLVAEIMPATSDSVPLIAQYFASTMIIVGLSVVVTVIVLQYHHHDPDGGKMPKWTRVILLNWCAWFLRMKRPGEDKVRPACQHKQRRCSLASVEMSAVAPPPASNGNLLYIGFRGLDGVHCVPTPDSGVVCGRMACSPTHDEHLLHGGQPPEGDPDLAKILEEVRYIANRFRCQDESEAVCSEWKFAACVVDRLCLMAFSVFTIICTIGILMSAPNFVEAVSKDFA
Protocol: Ca^2+ Flux Imaging (FDSS)
• Hanks buffered saline solution (HBSS, Invitrogen, Belgium), supplemented with 10 mM HEPES (Invitrogen, Belgium), CaCl2 to a final concentration of 5 mM, 0.1% Bovine serum albumin (Sigma-Aldrich NV, Belgium). b) Calcium-Sensitive Dye—Fluo-4AM • Fluo-4AM (Molecular Probes, USA) was dissolved in DMSO containing 10% Pluronic acid (Molecular Probes, USA) to give a stock solution which was diluted in assay buffer supplemented with 5 mM probenicid (Sigma, Aldrich NV, Belgium) to give a final concentration of 2 μM. c) 384-Well Plates • Black 384 well plate black/clear plates, PDL pre-coated (Corning, Incorporated, USA) d) Calcium Flux Measurement • A Functional drug screening system (FDSS, Hamamatsu) was used to measure intracellular free-calcium flux signals. Method
Monolayers of hα7-wt nAChR-expressing GH4C1 cells were grown in multi-well plates, in particular black-sided, transparent bottomed 384 well plates coated with poly-D-lysine for 24 hours prior to loading with a fluorescent calcium indicator, in a particular embodiment loading with fluo-4AM for up to 120 minutes.
PAM activity was detected in real time by applying the compound to be tested to the loaded cells along with a α7 nicotinic receptor agonist during constant monitoring of the cellular calcium mobilization by fluorescence in a FDSS. Compounds giving peak fluorescent responses greater than the response due to agonist alone, were considered to be α7 nAChR PAM's. In a particular embodiment, the α7 nicotinic receptor agonist was choline, a more particular embodiment choline applied at a sub-maximal concentration of 100 μM. In a further setting of the present invention the compounds to be tested were applied prior to the α7 nicotinic receptor agonist, in a particular embodiment up to 10 minutes prior to the agonist.
A control response to choline was calculated on each plate from the difference in peak in fluorescence in wells receiving either choline or assay buffer alone. Compounds of the present invention were tested at a concentration range from 0.01 μM to 30 μM. Compounds were considered to have an interesting activity when they potentiated the choline signal at least with 200% when tested at a concentration of 30 μM (the efficacy of 100 μM choline was defined as 100% in the absence of a PAM).
EC50 values (potency), maximal effect (% efficacy), and Hill slopes were estimated by fitting the sigmoidal equation to the data using GraphPad Prism (GraphPad Software, Inc., San Diego, Calif.). An EC50 (or pEC50) was determined as a concentration relating to half the maximal effect, when a clear sigmoidal curve with top plateau was obtained.

[2] = biological target: T1, hα7-wt nAChR; experiment: Whole-cell voltage-clamp recording, PAM type classification; assay type: cell-based; parameters: key: Type 1 compounds enhance the effect size of the current elicited by 1 mM choline but minimally alter the kinetics of the receptor.; Type 2 compounds enhance the effect size of the current elicited by 1 mM choline while reducing the rate and/or the extent of desensitization.; Type 3 compounds enhance the effect size of the current elicited by 1 mM choline. When tested at higher concentrations up to 10 μM they completely inhibit desensitization, in particular a 1 mM choline application of 250 milliseconds.; Type 4 compounds allow for an initial desensitization of the receptor followed by a re-opening of the receptor during agonist application; settings: qualitative kinetic properties; 1 mM choline; hα7-wt nAChR-expressing GH4C1 cells
Protocol: The compounds of the present invention are classified as type 1-4, based on qualitative kinetic properties, as determined by whole-cell voltage-clamp recordings. This classification is based on the effect of an α7 PAM compound, as described hereinbefore, on the signal elicited by an agonist application. In particular, said agonist is choline at a concentration of 1 mM. In a preferred experimental setting, said α7 PAM compound and choline are simultaneously applied to the cell, as described hereinafter. Desensitization is defined as the closure of the receptor upon activation during the application of the agonist in whole-cell voltage-clamp electrophysiology measurements seen as the reduction of the […] current after initial activation by the agonist.
The definition of the PAM types 1-4 is described hereinafter: • Type 1 compounds enhance the effect size of the current elicited by 1 mM choline but minimally alter the kinetics of the receptor. In particular, the rate and the extent of desensitization, elicited by the agonist, is not affected. The compound-modulated response to 1 mM choline, therefore, is a close to linear scaling of the 1 mM choline response in absence of the α7 PAM compound. • Type 2 compounds enhance the effect size of the current elicited by 1 mM choline while reducing the rate and/or the extent of desensitization. • Type 3 compounds enhance the effect size of the current elicited by 1 mM choline. […] At low-potency concentrations of the α7 PAM compound, the agonist-induced activation, which is followed by desensitization, can still be separated from the compound-induced re-opening as an initial inward current-maximum. At higher potency concentrations of the α7 PAM compound, the re-opening occurs faster than the closure due to desensitization so that the initial current-maximum disappears.
The compounds of the present invention also have a potentiating effect on the response to choline when measured by whole-cell voltage-clamp electrophysiology in GH4C1 cells stably over-expressing the human wild-type α7 receptor, as described hereinafter.
Whole-Cell Voltage-Clamp Recording
Whole-cell voltage-clamp recording from mammalian cells has provided a powerful means of assessing the function of membrane proteins thought to be subunits of ligand-gated ion channels. Activation of such proteins by endogenous or exogenous ligands causes opening of a pore associated with the receptor through which ions flow down their electrochemical gradient. In the case of the hα7-wt nAChR-expressing GH4C1 recombinant cell line the preferential permeability to calcium of this receptor means that calcium flows into the cell upon activation by ACh, choline and other nicotinic ligands giving rise to a calcium current. Since this receptor rapidly desensitizes in the presence of an agonist it is important that an application system is used which is capable of very rapid switching of solutions (<100 ms) to prevent partial or full desensitisation of receptor responses coincident with the time of agonist application. Consequently, a second convenient technique to assess the enhancement of nicotinic efficacy is whole-cell voltage-clamp recording from hα7-wt nAChR-expressing GH4C1 cells coupled with a rapid-application system.
• The external recording solution consisted of 152 mM NaCl, 5 mM KCl, 1 mM MgCl2, 1 mM Calcium, 10 mM HEPES; pH 7.3. The internal recording solution consisted of 140 mM CsCl, 10 mM HEPES, 10 mM EGTA, 1 mM MgCl2, pH 7.3. • b) Patch-clamp recording was carried out using a Patch-clamp amplifier (Multiclamp 700A, Axon Instruments, CA, USA). The membrane potential of hα7-wt nAChR-expressing GH4C1 cells was voltage-clamped in the whole cell configuration (Hamill et al, 1981) with a borosilicate glass electrode of 1.5-3 MΩ tip resistance when filled with the internal recording solution. […]

Row | SMILES | EC50 [1] | melting point | Emax [1] | PAM_type [2]
1 | CCCC(O)Cn1nc(Nc2ccc(F)c(F)c2)nc1-c1ccnc(C)c1 (single isomer, unassigned) [Compound E15] | 676 nM | 133.1 °C |  | 1
2 | CCC(O)Cn1nc(Nc2cc(OC)cc(C(F)(F)F)c2)nc1-c1ccnc(C)c1 (single isomer, unassigned) [Compound E28] | 1780 nM | 117.16 °C |  | 2
3 | CCC(O)Cn1nc(Nc2ccc(F)c(F)c2)nc1-c1ccnc(NCCOC)c1 (stereo not drawn) [Compound E9] | 933 nM | 137.06 °C | 1000% | 2
4 | CCC(O)Cn1nc(Nc2ccc(F)c(F)c2)nc1-c1ccnc(C)c1 (single isomer, unassigned) [Compound E6] | 955 nM | 142.72 °C |  | 2
5 | CCCC(O)Cn1nc(Nc2cccc(Cl)c2)nc1-c1cc(C)nc(C)c1 (single isomer, unassigned) [Compound E23] | 891 nM | 127.44 °C |  | 1
6 | CCC(O)Cn1nc(Nc2ccc(F)c(F)c2)nc1-c1ccnc(C)c1 (single isomer, unassigned) [Compound E26] | 776 nM | 145.29 °C | 580% | 1

The next molecules have a lower EC50 [1] than those just listed; values first:

Row | EC50 [1] | melting point | Emax [1] | SMILES | PAM_type [2]
7 | 214 nM | 120.54 °C |  | CCC(O)Cn1nc(Nc2cc(OC)cc(C(F)(F)F)c2)nc1-c1ccnc(C)c1 (single isomer, unassigned) [Compound E20] | 4
8 | 355 nM | 161.99 °C |  | CCNc1cc(-c2nc(Nc3cccc(Cl)c3)nn2C[C@@H](O)CC)ccn1 [Compound E2, (S)-1-[3-(3-Chloro-phenylamino)-5-(2-ethylamino-pyridin-4-yl)-[1,2,4]triazol-1-yl]-butan-2-ol] | 2
9 | 204 nM | 135 °C |  | CCCCC(O)Cn1nc(Nc2ccc(F)c(F)c2)nc1-c1cc(C)nc(C)c1 (single isomer, unassigned; (+)) [Compound E5, (+)-1-[3-(3,4-Difluoro-phenylamino)-5-(2,6-dimethyl-pyridin-4-yl)-[1,2,4]triazol-1-yl]-hexan-2-ol] | 2
10 | 245 nM | 141.14 °C | 490% | CCCC(O)Cn1nc(Nc2ccc(F)c(F)c2)nc1-c1cc(C)nc(C)c1 (single isomer, unassigned) [Compound E13] | 1

From US8440701B2, “Trisubstituted 1,2,4 triazoles” (Janssen Pharmaceutica NV, priority 2007, dated 2013)
